Test results as given in patent publication US6420558B1, “Aminopiperidine derivates as integrin αvβ3 antagonists” (Meiji Seika Kaisha, Ltd., priority 1998, dated 2002).

Biological target: T1, integrin α5β1 (fibronectin receptor purified from the human placenta) (Homo sapiens, UniProt P05556+P08648)
T1 construct: a fibronectin receptor (protein content: 52.1 μg/ml) purified from the human placenta; from tissue; host or cells: human placenta
Experiment: α5β1 binding assay (fibronectin-fibronectin receptor binding assay)
Conditions: fibronectin binding to human placenta fibronectin receptor; read-out: α5β1 Binding inhibitory activity
Procedure: Integrin α5β1 antagonistic activity (lethality) was measured for the compounds according to the present invention in a fibronectin-fibronectin receptor binding assay system in accordance with the method of Kouns et al. (W. C. Kouns, D. Kirchhofer, P. Hadvary, A. Edenhofer, T. Weller, G. Pfenninger, H. R. Baumgartner, L. K. Jennings, and B. Steiner, Blood, 80, 2539-2547 (1992)).
Specifically, a fibronectin receptor (protein content: 52.1 μg/ml) purified from the human placenta by the method of Pytela et al. (R. Pytela, M. D. Pierschbacher, S. Argraves, S. Suzuki, and E. Ruoslahti, Method in Enzymology, 144, 475-489 (1987)) was diluted 25 times with TBS (20 mM Tris-HCl, 150 mM NaCl, 1 mM CaCl2, 1 mM MgCl2, pH 7.4), and distributed and coated on wells (50 μl/well) of a plate (Maxisorp, Nunc, 96 well Immuno Plate). The plate was then allowed to stand at 4° C. for one day, washed twice with TBS (200 μl/well), and then subjected to blocking with TBS (150 μl/well) containing 3% skim milk (DIFCO) at 4° C. overnight. After washing twice with TBS (200 μl/well) containing 0.05% Tween-20 and then washing twice with TBS (200 μl/well), purification was carried out according to the method of E. Engvall et al. (E. Engvall, E. Ruoslahti, and E. J. Miller, J. Exp. Med., 147, 1584-1595 (1978)), and 50 […] of fibronectin adjusted to 0.2 μg/ml by the addition of TBS (TBS-Tween) containing 0.01% Tween-20 was mixed with 50 μl of each test compound adjusted to each concentration in the wells, and a reaction was allowed to proceed at room temperature for 3 hr. After the completion of the reaction, the wells were washed five times with TBS-Tween. A solution prepared by diluting a peroxidase-labeled fibronectin antibody (CAPPEL) 500 times with TBS-Tween was added in an amount of 50 μl per well, and a reaction was allowed to proceed at room temperature for 1.5 hr. After washing five times with TBS-Tween (200 μl/well), ABTS (SIGMA) adjusted to 1 mg/ml by the addition of a ten-fold diluted POD-buffer (ZYMED) was added in an amount of 50 μl/well, and a reaction was allowed to proceed for 5 to 10 min. A 0.1 M citric acid buffer (pH 4.3) containing 0.05% NaN3 was added in an amount of 50 μl/well to stop the reaction, followed by the measurement of the absorbance at 415 nm with a microplate reader (MTP 32, Corona Electric) (reference: 675 nm). The total binding was defined as the absorbance after a reaction using 50 μl of TBS-Tween instead of the test compound, and the non-specific binding (100% inhibition) was defined as the absorbance after a reaction using 50 μl of TBS-Tween containing 2×10^−3 M RGDS. The inhibition was calculated by the following equation: [formula]
IC50 was determined from a primary regression line of the logarithm of each concentration of the test compound and the logarithm of (100−inhibition)/inhibition.

T1 sequence (P08648 42-894 limits assumed): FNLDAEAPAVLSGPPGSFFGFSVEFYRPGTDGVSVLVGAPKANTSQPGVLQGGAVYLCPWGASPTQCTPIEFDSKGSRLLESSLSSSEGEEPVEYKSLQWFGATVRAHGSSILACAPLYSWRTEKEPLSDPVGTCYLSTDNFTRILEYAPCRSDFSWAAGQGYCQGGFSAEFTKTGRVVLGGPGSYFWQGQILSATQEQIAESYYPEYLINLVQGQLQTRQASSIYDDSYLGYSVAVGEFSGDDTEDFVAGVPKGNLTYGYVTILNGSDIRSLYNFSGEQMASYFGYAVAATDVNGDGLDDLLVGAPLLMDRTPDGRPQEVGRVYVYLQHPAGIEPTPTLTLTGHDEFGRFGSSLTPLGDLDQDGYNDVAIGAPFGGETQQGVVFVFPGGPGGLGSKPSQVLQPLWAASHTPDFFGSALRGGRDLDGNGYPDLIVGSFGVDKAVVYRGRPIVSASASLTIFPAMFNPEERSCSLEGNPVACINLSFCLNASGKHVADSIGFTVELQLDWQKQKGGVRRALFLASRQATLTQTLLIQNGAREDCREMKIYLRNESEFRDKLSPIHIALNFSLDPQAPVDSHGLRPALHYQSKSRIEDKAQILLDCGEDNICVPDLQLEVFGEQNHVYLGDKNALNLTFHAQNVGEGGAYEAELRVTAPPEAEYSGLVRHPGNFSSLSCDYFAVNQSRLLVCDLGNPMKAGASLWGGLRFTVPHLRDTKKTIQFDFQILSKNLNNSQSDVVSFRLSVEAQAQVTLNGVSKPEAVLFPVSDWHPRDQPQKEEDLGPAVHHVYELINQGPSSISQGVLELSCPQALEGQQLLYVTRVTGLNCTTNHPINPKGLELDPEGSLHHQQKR
T1 sequence (P08648 895-1049 limits assumed): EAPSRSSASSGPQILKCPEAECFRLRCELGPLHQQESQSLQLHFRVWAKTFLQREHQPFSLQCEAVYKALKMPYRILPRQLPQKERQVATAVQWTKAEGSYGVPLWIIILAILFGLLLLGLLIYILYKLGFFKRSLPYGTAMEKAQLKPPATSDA
T1 sequence (P05556 21-798): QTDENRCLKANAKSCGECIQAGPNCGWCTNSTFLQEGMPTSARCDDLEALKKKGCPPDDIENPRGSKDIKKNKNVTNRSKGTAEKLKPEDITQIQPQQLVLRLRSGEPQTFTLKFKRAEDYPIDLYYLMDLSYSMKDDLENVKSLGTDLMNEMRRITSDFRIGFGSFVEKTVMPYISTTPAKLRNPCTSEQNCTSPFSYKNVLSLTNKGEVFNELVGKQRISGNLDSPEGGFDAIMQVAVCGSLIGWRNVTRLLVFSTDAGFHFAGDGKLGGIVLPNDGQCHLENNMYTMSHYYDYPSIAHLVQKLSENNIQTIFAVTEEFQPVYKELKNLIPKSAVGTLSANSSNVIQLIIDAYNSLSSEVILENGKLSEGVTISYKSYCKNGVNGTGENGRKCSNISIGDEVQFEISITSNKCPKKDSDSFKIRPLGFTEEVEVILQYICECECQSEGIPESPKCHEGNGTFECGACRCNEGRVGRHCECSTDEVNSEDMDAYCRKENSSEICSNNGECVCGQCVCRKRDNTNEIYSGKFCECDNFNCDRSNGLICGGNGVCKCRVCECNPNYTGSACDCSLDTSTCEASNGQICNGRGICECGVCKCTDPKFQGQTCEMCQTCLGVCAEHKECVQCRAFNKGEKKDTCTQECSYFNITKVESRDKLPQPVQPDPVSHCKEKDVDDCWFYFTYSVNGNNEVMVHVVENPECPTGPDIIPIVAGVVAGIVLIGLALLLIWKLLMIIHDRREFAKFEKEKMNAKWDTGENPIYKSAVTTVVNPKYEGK

`O=C(NC[C@H](NS(=O)(=O)c1ccccc1)C(=O)O)c1ccc(N2CCC(NC3=NCCCN3)CC2)c(F)c1` [Example 52, (2S)-Benzenesulfonylamino-3-[3-fluoro-4-{4-(1,4,5,6-tetrahydropyrimidin-2-ylamino)piperidin-1-yl}-benzoylamino]propionic acid] was tested, and the IC50 was 330 nM.
